According to patent US20250263436A1, “BROAD-SPECTRUM ANTIVIRAL DRUG FOR ENTEROVIRUS, AND APPLICATION” (WUHAN INSTITUTE OF VIROLOGY, CHINESE ACADEMY OF SCIENCES, priority 2020, published 2025):
Several values for one entry are separate records, joined by “and”; a condition that tells them apart may be missing. Equal values may be shown once.

Experiments:
[1] = tested on: Echo 11; experiment: Inhibition of Echo 11 in RD cells (viral RNA, qRT-PCR); assay type: cell-based; settings: inhibiting Echo 11 in RD cells
Description: (1) RD cells were plated in a 24-well plate.
(2) When the cells grew to a confluence of 70%-80%, the DMEM medium containing 10% serum was replaced with a DMEM medium containing 2% serum (the DMEM medium containing 2% serum was added in each well at an amount of 0.5 mL), and 5 μL of Echo 11 virus of 1×10^6 PFU/mL was added to each well.
(3) After 1 h, the polypeptides with final concentrations of 0.3125 μM, 0.625 μM, 1.25 μM, 2.5 μM, and 5 μM were added respectively. The group without polypeptide added was used as a control.
(4) The samples were collected 24 h after the infection of Echo 11 virus, and RNA was extracted with the total RNA extraction kit.
(§1) (5) The supernatant was discarded, then 350 μL of TRK lysate was added to each well, and the plate was put on a shaker for 5 min.
(§2) (6) 350 μL of 70% ethanol (DEPC) was added to each well, and then the plate was put on a shaker for 5 min.
(§3) (7) The solution in each well was transferred to a RNA extraction column for 1 min of centrifugation at 12000 g.
(§4) (8) The solution obtained in the recovery tube was reloaded on the column again for 1 min of centrifugation at 12000 g.
(9) RNA washing buffer 1 was added in the column for 30 s of centrifugation at 12000 g. […]
(14) 2 μL of RNA sample was subjected to a fluorescence quantitative experiment using the one step qRT-PCR kit. […]

[2] = tested on: EV71; experiment: Inhibition of EV71 in RD cells (viral RNA, qRT-PCR); assay type: cell-based, enterovirus 71 (EV71); settings: anti-EV71 in RD cells
Description: (§5) (1) Different cells were plated in a 24-well plate.
(§6) (2) When the cells grew to a confluence of 70%-80%, the DMEM medium containing 10% serum was replaced with a DMEM medium containing 2% serum (the DMEM medium containing 2% serum was added in each well at an amount of 0.5 mL), and 5 μL of EV71 virus of 1×10^6 PFU/mL was added to each well.
(§7) (3) After 1 h, different polypeptides (RQ or control TAT) with final concentrations of 0.3125 μM, 0.625 μM, 1.25 μM, 2.5 μM, and 5 μM were added respectively. The group without polypeptide added was used as a control.
(§8) (4) The samples were collected 24 h after the infection of EV71 virus, and RNA was extracted with the total RNA extraction kit.
as §1, §2, §3, §4
(§9) (9) RNA washing buffer 1 was added in the column for 30 s of centrifugation at 12000 g.
(§10) (10) RNA washing buffer 2 was added in the column for 1 min of centrifugation at 12000 g.
(§11) (11) Step (10) was repeated.
(§12) (12) The column alone was centrifuged at 12000 g for 2 min to completely remove the residual RNA washing buffer.
(§13) (13) 50 μL of DEPC water was added to the column for 2 min of centrifugation at 12000 g.
(§14) (14) 2 μL of RNA sample was subjected to a fluorescence quantitative experiment using the one step qRT-PCR kit.
(3) After 1 h, different polypeptides (RQ or control TAT) with final concentrations of 0.3125 μM, 0.625 μM, 1.25 μM, 2.5 μM and 5 μM were added respectively. The group without polypeptide added was used as a control.

[3] = Toxicity assay in Huh7 cells (CCK-8); assay type: cell-based; settings: human, Huh7 cells
Description: (§15) (1) Different cells were plated in a 96-well plate at 100 μL per well.
(§16) (2) When the cells grew to a confluence of 70%-80%, the DMEM medium containing 10% serum was replaced with a DMEM medium containing 2% serum, and a certain concentration gradient of polypeptide RQ was added, so that the final concentrations of the polypeptide in the wells were 0.073242 μM, 0.146484 μM, 0.292969 μM, 0.585938 μM, 1.171875 μM, 2.34375 μM, 4.6875 μM, 9.375 μM, 18.75 μM, 37.5 μM, 75 μM, 150 μM, and 300 μM, respectively.
(§17) (3) The samples were collected 24 h after the addition of the polypeptide, and then 10 μL of live cell detection reagent CCK-8 was added to each well and mixed well.
(§18) (4) The plate was placed at 37° C. for 2 h.
(§19) (5) The absorbance value at OD450 was detected by a microplate reader.

[4] = tested on: Huh7 cells; experiment: Toxicity assay in Huh7 cells (CCK-8); assay type: cell-based; settings: Table 14, 24 h
Description: as §15, §16, §17, §18, §19

[5] = tested on: EV71; experiment: Inhibition of EV71 in Vero cells (viral RNA, qRT-PCR); assay type: cell-based, enterovirus 71 (EV71); settings: anti-EV71 in Vero cells
Description: as §5, §6, §7, §8, §1, §2, §3, §4, §9, §10, §11, §12, §13, §14
(1) Vero E6 cells were plated in a 24-well plate.
(3) After 1 h, different polypeptides (LQ or SQ) with final concentrations of 0.3125 μM, 0.625 μM, 1.25 μM, 2.5 μM, and 5 μM were added respectively. The group without polypeptide added was used as a control.

CC[C@H](C)[C@H](NC(=O)[C@H](C)NC(=O)[C@H](CO)NC(=O)[C@H](CCCNC(=N)N)NC(=O)[C@H](CC(N)=O)NC(=O)[C@H](CC(N)=O)NC(=O)[C@H](Cc1ccc(O)cc1)NC(=O)[C@H](CCC(=O)O)NC(=O)[C@H](CCCNC(=N)N)NC(=O)CNC(=O)[C@H](CO)NC(=O)CNC(=O)[C@H](CCCNC(=N)N)NC(=O)[C@H](CCCNC(=N)N)NC(=O)[C@H](CCCNC(=N)N)NC(=O)[C@H](CCC(N)=O)NC(=O)[C@H](CCCNC(=N)N)NC(=O)[C@H](CCCNC(=N)N)NC(=O)[C@H](CCCCN)NC(=O)[C@H](CCCCN)NC(=O)[C@H](CCCNC(=N)N)NC(=O)CNC(=O)[C@@H](N)Cc1ccc(O)cc1)C(=O)NCC(=O)N[C@@H](CC(N)=O)C(=O)N[C@H](C(=O)N[C@H](C(=O)N[C@@H](CCC(=O)O)C(=O)N[C@@H](C)C(=O)N[C@@H](CC(C)C)C(=O)N[C@@H](Cc1ccccc1)C(=O)N[C@@H](CCC(N)=O)C(=O)O)[C@@H](C)CC)[C@@H](C)O [RQ]
IC50 [1]: 0.37 µM
IC50 [2]: 1.35 µM
viability at 24 h, 0.073242 µM ([3]; Table 14, RQ 0.073242 μM, 24 h, read-out: Viability of Huh7 cell (%)): 113%
viability at 24 h, 0.146484 µM ([3]; Table 14, RQ 0.146484 μM, 24 h, read-out: Viability of Huh7 cell (%)): 111%
viability at 24 h, 0.292969 µM ([3]; Table 14, RQ 0.292969 μM, 24 h, read-out: Viability of Huh7 cell (%)): 111%
viability at 24 h, 0.585938 µM ([3]; Table 14, RQ 0.585938 μM, 24 h, read-out: Viability of Huh7 cell (%)): 101%
viability at 24 h, 1.17188 µM ([3]; Table 14, RQ 1.171875 μM, 24 h, read-out: Viability of Huh7 cell (%)): 104%
viability at 24 h, 2.34375 µM ([3]; Table 14, RQ 2.34375 μM, 24 h, read-out: Viability of Huh7 cell (%)): 98.7%
viability at 24 h, 4.6875 µM ([3]; Table 14, RQ 4.6875 μM, 24 h, read-out: Viability of Huh7 cell (%)): 98%
viability at 24 h, 9.375 µM ([3]; Table 14, RQ 9.375 μM, 24 h, read-out: Viability of Huh7 cell (%)): 103%
viability at 24 h, 18.75 µM ([3]; Table 14, RQ 18.75 μM, 24 h, read-out: Viability of Huh7 cell (%)): 101%
viability at 24 h, 37.5 µM ([3]; Table 14, RQ 37.5 μM, 24 h, read-out: Viability of Huh7 cell (%)): 95%
viability at 24 h, 75 µM ([3]; Table 14, RQ 75 μM, 24 h, read-out: Viability of Huh7 cell (%)): 90.9%
viability at 24 h, 150 µM ([3]; Table 14, RQ 150 μM, 24 h, read-out: Viability of Huh7 cell (%)): 65.8%
CC50 at 24 h ([3]; Table 1 (Huh and 293T cells)): > 300 µM
Viability of Huh7 cell (%) ([4]; RQ 0.073242 μM): 113.9801% and 116.7518%
Viability of Huh7 cell (%) ([4]; RQ 0.146484 μM): 106.6132% and 101.8721%
Viability of Huh7 cell (%) ([4]; RQ 0.292969 μM): 104.4979% and 102.018%
Viability of Huh7 cell (%) ([4]; RQ 0.585938 μM): 100.7051% and 101.5074%
Viability of Huh7 cell (%) ([4]; RQ 1.171875 μM): 97.2% and 99.03%
Viability of Huh7 cell (%) ([4]; RQ 2.34375 μM): 100.1945% and 96.04%
Viability of Huh7 cell (%) ([4]; RQ 4.6875 μM): 103.5497% and 101.2886%
Viability of Huh7 cell (%) ([4]; RQ 9.375 μM): 101.4345% and 97.71%
Viability of Huh7 cell (%) ([4]; RQ 18.75 μM): 93.41% and 94.29%
Viability of Huh7 cell (%) ([4]; RQ 37.5 μM): 97.06% and 92.03%
Viability of Huh7 cell (%) ([4]; RQ 75 μM): 93.27% and 88.09%
Viability of Huh7 cell (%) ([4]; RQ 150 μM): 67.74% and 51.47%
IC50 [5]: 0.66 µM
